Laboratory results: US12018299B2, “Methods and kits for quantifying adenosine-containing molecules” (priority 2017, dated 2024)

What was measured:
MTAN-D198N = MTAN-D198N (Helicobacter pylori, UniProt Q9ZMY2, D198N); details: for affinity to MTAN-D198N / displacement of AdoHcy-TAMRA: displacement curves, FIG. 10B
CIAP = CIAP (Bos taurus, UniProt P19111); details: molybdenum blue-based assay, previous work, cited from earlier work
[1] = molecular target: T1, calf intestinal alkaline phosphatase (CIAP) (Bos taurus, UniProt P19111); experiment: biochemical
Protocol: (§1) Calf Intestinal Alkaline Phosphatase (CIAP) was obtained from New England Biolabs. […] Reactions were initiated by adding ATP at varying concentrations ranging from 0.1 to 20 μM. Due to the ability of ATP to act as an inhibitor of CIAP at high concentrations, steady-state analysis of the resulting data was fitted to a substrate-inhibition equation in Equation 8, below, using Prism 7.

[2] = molecular target: T1, calf intestinal alkaline phosphatase (CIAP); details: read-out: Km of ATP for CIAP; competitive FP assay, 0.25 U/mL CIAP
Protocol: as §1

HpMTAN = HpMTAN (Helicobacter pylori, UniProt Q9ZMY2); details: previously characterized; cited from earlier work
[3] = molecular target: Mycobacterium smegmatis EgtD (Mycolicibacterium smegmatis, UniProt A0R5M8); details: isothermal calorimetry, previously determined; cited from earlier work
[4] = test system: N[C@@H](Cc1c[nH]cn1)C(=O)O; experiment: purified protein, by the assay type; details: pH 8.0; 25.0 °C

MTAN-D198N, sequence (Q9ZMY2 whole entry D198N): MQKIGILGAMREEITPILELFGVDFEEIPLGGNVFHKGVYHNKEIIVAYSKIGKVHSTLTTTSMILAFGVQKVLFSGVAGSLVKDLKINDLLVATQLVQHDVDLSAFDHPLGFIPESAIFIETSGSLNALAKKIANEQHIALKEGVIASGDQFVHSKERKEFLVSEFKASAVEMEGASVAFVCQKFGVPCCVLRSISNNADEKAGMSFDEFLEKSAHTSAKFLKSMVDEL
Mycobacterium smegmatis EgtD, sequence (A0R5M8 whole entry): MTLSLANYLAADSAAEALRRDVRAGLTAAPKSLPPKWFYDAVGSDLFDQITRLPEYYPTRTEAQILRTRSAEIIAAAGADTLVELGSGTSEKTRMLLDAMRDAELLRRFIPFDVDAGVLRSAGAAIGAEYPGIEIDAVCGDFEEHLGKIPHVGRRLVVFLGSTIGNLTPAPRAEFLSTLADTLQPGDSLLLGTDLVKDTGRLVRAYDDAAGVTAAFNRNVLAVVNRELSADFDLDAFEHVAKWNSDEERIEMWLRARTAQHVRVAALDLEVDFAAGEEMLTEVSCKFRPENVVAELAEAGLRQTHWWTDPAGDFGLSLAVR
CIAP, sequence (P19111 20-506): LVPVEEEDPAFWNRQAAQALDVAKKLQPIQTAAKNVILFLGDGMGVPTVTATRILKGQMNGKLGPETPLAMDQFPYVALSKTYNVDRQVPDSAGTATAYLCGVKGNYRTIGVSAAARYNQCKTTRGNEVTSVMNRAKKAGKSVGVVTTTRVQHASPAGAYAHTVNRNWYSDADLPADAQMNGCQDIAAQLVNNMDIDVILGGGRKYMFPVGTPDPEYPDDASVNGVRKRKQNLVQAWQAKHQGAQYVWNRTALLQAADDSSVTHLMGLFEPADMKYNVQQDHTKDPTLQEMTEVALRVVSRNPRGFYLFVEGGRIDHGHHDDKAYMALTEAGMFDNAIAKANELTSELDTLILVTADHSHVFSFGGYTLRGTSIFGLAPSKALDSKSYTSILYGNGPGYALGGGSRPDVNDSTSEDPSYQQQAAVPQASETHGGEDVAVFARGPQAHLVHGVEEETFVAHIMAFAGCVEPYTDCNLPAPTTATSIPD
T1 sequence (P19111 20-506): as above
HpMTAN, sequence (Q9ZMY2 whole entry): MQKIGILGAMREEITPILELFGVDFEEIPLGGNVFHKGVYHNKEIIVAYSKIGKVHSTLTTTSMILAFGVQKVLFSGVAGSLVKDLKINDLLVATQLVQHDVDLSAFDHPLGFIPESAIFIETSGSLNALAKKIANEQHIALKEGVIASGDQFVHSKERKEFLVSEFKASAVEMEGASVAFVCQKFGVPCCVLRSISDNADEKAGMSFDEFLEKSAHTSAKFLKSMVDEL

With `Nc1ncnc2c1ncn2[C@@H]1O[C@H](COP(=O)(O)OP(=O)(O)O)[C@@H](O)[C@H]1O` [ADP, adenosine diphosphate] the “affinity to MTAN-D198N / displacement of AdoHcy-TAMRA” value (“affinity to MTAN-D198N / displacement” for short) (MTAN-D198N) was “M affinity”.

In the case of `Nc1ncnc2c1ncn2[C@@H]1O[C@H](COP(=O)(O)O)[C@@H](O)[C@H]1O` [AMP, adenosine monophosphate], the “affinity to MTAN-D198N / displacement” value (MTAN-D198N) is reported as “M affinity”.

For `Nc1ncnc2c1ncn2[C@@H]1O[C@H](COP(=O)(O)OP(=O)(O)OP(=O)(O)O)[C@@H](O)[C@H]1O` [ATP, adenosine triphosphate], the Ki (CIAP; read-out: Ki for substrate inhibition of ATP (CIAP)) is given as 19 µM, the Km (CIAP; read-out: Km of ATP for CIAP) is given as 20.5 µM and the Ki [1] is given as 7.6 ± 1.8 µM. For the same compound, the Km [2] was 0.9 ± 0.2 µM and the “affinity to MTAN-D198N / displacement” value (MTAN-D198N) was “unable to displace AdoHcy-TAMRA”.

In the case of `Nc1ncnc2c1ncn2[C@@H]1O[C@H](CSCC[C@H](N)C(=O)O)[C@@H](O)[C@H]1O` [AdoHcy, S-adenosylhomocysteine], the “affinity with HpMTAN” value (HpMTAN) is given as “low p M affinity” and the “limit of detection, amount” value (MTAN-D198N; 50 μL reactions) is given as “about 0.3 pmol”.

For `C[S+](CC[C@H](N)C(=O)O)C[C@H]1O[C@@H](n2cnc3c(N)ncnc32)[C@H](O)[C@@H]1O` (stereo partly drawn) [AdoMet, S-adenosyl methionine], the Kd [3] is given as 270 ± 20 µM.

In the case of `N[C@@H](Cc1c[nH]cn1)C(=O)O` [L-histidine], the Kd [3] is given as 290 ± 14 µM.

“EgtD (Mycobacterium tuberculosis CDC1551)” gave a Km [4] of 330 ± 35 µM.
